From patent US9023843B2, “Antimicrobial compounds and methods of making and using the same” (Melinta Therapeutics, Inc., priority 2009, dated 2015) come the findings set out here.

Some results are limits rather than exact numbers.

The test system of the assay is Eschericia coli strain ATCC25922. Nature of the assay: standard microdilution assay to determine minimum inhibitory concentrations (MICs). The assay is classed as cell-based. Particulars: Escherichia coli, read-out: E. coli ATCC25922 MIC. The method, then: Minimum inhibitory concentrations (MICs) are determined by the microdilution method, typically in a final volume of 100 microliters, according to protocols outlined by The Clinical and Laboratory Standards Institute [CLSI; formerly the National Committee for Clinical Laboratory Standards (NCCLS)]. See CLSI: Methods for dilution antimicrobial susceptibility tests for bacteria that grow aerobically; approved standard-fifth edition. Wayne, Pa.: NCCLS; 2000. The assays can be also be performed in microtiter trays according to conventional methodologies as published by the CLSI. See CLSI. Methods for Dilution Antimicrobial Susceptibility Tests for Bacteria That Grow Aerobically; Approved Standard-Seventh Edition. CLSI Document M7-A7 [ISBN 1-56238-587-9] CLSI, 940 West Valley Road, Suite 1400, Wayne Pa. 19087-1898 USA, 2006).
The compounds of the present invention were tested for antimicrobial activity. The compounds were run against Eschericia coli strain ATCC25922 using a standard microdilution assay to determine minimum inhibitory concentrations (MICs). […] A “N/A” means that data is unavailable. It will be recognized by one skilled in the art that the compounds can be assessed against other bacterial organisms and that the presentation of data for activity against Eschericia coli is illustrative and in no way is intended to limit the scope of the present invention. The compounds of the present invention can be assayed against a range of other microorganisms depending upon the performance activity desired to be gathered. Furthermore, the “+”, “−”, and “N/A” representation and the selection of a cutoff value of 16 micrograms/ml is also illustrative and in no way is intended to limit the scope of the present invention.
(Broth dilution looks for growth in wells or tubes with falling amounts of substance.)
What is called MIC is the lowest concentration that inhibits growth of the organism. Take `N=C(N)NCCCN1CCC(n2cc3c(nc2=O)Nc2cc(C(=O)Nc4ccccc4OC(F)(F)F)ccc2O3)CC1` [Compound 675]: the MIC was more than 16 µg/mL.

As to `N#Cc1cccc(-c2ccc3c(c2)Nc2nc(=O)n(C4CCCN(CCCNC(=N)N)CC4)cc2O3)c1` (stereo not shown) [Compound 676], the MIC was more than 16 µg/mL. For the compound `Cn1cnc(S(=O)(=O)N2CCC(c3ccc4c(c3)Nc3nc(=O)n(C5CCN(CCCNC(=N)N)CC5)cc3O4)CC2)c1` [Compound 681], the MIC is more than 16 µg/mL. The result for `N=C(N)NCCCN1CCC(n2cc3c(nc2=O)Nc2cc(C(=O)Nc4cc(F)c(F)cc4F)ccc2O3)CC1` [Compound 685] reads more than 16 µg/mL; that for `N=C(N)NCCCN1CCC(n2cc3c(nc2=O)Nc2cc(C(=O)Nc4ncn[nH]4)ccc2O3)CC1` [Compound 686], more than 16 µg/mL. The result for `N=C(N)NCCCN1CCC(n2cc3c(nc2=O)Nc2cc(-c4ccc(C(F)(F)F)nc4)ccc2O3)CC1` [Compound 690] reads more than 16 µg/mL. On to `CN(C)CC(=O)N1CCC(c2ccc3c(c2)Nc2nc(=O)n(C4CCN(CCCNC(=N)N)CC4)cc2O3)CC1` [Compound 691], for which the MIC is more than 16 µg/mL. For the compound `N=C(N)NCCCN1CCC(n2cc3c(nc2=O)Nc2cc(C4CCN(S(=O)(=O)C5CC5)CC4)ccc2O3)CC1` [Compound 694], the MIC was more than 16 µg/mL. The result for `N=C(N)NCCCN1CCCC(n2cc3c(nc2=O)Nc2cc(C(=O)NCCc4cnc[nH]4)ccc2O3)CC1` (stereo not shown) [Compound 707] reads less than 16 µg/mL; that for `N=C(N)NCCCN1CCCC(n2cc3c(nc2=O)Nc2cc(C(=O)NCCC4CCNCC4)ccc2O3)CC1` (stereo not shown) [Compound 708], less than 16 µg/mL; that for `NCCCN1CCC(n2cc3c(nc2=O)Nc2cc(C4CCN(C(=O)CN)CC4)ccc2O3)CC1` [Compound 714], more than 16 µg/mL. The result for `N=C(N)NCCCN1CCC(n2cc3c(nc2=O)Nc2cc(C4CCN(C(=O)CNC(=N)N)CC4)ccc2O3)CC1` [Compound 715] reads less than 16 µg/mL. The result for `N=C(N)NCCCN1CCC(n2cc3c(nc2=O)Nc2cc(C4CCN(C(=O)C(N)CO)CC4)ccc2O3)CC1` (stereo not shown) [Compound 718] reads more than 16 µg/mL; that for `N=C(N)NCCCN1CCC(n2cc3c(nc2=O)Nc2cc(C4CCN(C(=O)Nc5ccc(C(F)(F)F)cc5)CC4)ccc2O3)CC1` [Compound 729], less than 16 µg/mL. For the compound `N=C(N)NCCCN1CCC(n2cc3c(nc2=O)Nc2cc(C4CCN(C(=O)Nc5ccc(F)c(Cl)c5)CC4)ccc2O3)CC1` [Compound 730], the MIC is more than 16 µg/mL. The result for `NCCCNC1CCC(n2cc3c(nc2=O)Nc2cc(C(=O)NCCCN4CCNCC4)ccc2O3)CC1` (stereo not shown) [Compound 731] reads less than 16 µg/mL; that for `N=C(N)NCCCNC1CCC(n2cc3c(nc2=O)Nc2cc(C(=O)NCCCN4CCNCC4)ccc2O3)CC1` (stereo not shown) [Compound 732], less than 16 µg/mL; that for `N=C(N)NCCCN1CCC(n2cc3c(nc2=O)Nc2cc(C4CCN(C(=O)Nc5ccc(F)cc5)CC4)ccc2O3)CC1` [Compound 733], more than 16 µg/mL. The result for `N=C(N)NCCCN1CCC(n2cc3c(nc2=O)Nc2cc(C4CCN(S(=O)(=O)c5cccnc5)CC4)ccc2O3)CC1` [Compound 738] reads more than 16 µg/mL. The result for `NCCCNC1CCC(n2cc3c(nc2=O)Nc2cc(C(=O)NCCN4CCNCC4)ccc2O3)CC1` (stereo not shown) [Compound 740] reads less than 16 µg/mL. With `N=C(N)NCCCNC1CCC(n2cc3c(nc2=O)Nc2cc(C(=O)NCCN4CCNCC4)ccc2O3)CC1` (stereo not shown) [Compound 741], the MIC was less than 16 µg/mL. The result for `NCCCN1CCC(n2cc3c(nc2=O)Nc2cc(C4CCN(C(=O)CN(Cc5ccc(F)c(F)c5)C5CCNCC5)CC4)ccc2O3)CC1` [Compound 748] reads more than 16 µg/mL; that for `N=C(N)NCCCN1CCC(n2cc3c(nc2=O)Nc2cc(C4CCN(C(=O)CN(Cc5ccc(F)c(F)c5)C5CCNCC5)CC4)ccc2O3)CC1` [Compound 749], less than 16 µg/mL; that for `Cn1cnc(S(=O)(=O)N2CCC(c3ccc4c(c3)Nc3nc(=O)n(C5CCC(NCCCNC(=N)N)CC5)cc3O4)CC2)c1` (stereo not shown) [Compound 750], more than 16 µg/mL.

`CN(C)CC(=O)N1CCC(c2ccc3c(c2)Nc2nc(=O)n(C4CCC(NCCCNC(=N)N)CC4)cc2O3)CC1` (stereo not shown) [Compound 751]: the minimum inhibitory concentration (MIC) is less than 16 µg/mL. The result for `N=C(N)NCCCNC1CCC(n2cc3c(nc2=O)Nc2cc(C4CCN(C(=O)CNC(=N)N)CC4)ccc2O3)CC1` (stereo not shown) [Compound 752] reads less than 16 µg/mL.

For the compound `N=C(N)NCCCNC1CCC(n2cc3c(nc2=O)Nc2cc(C4CCN(C(=O)CN(Cc5ccc(F)c(F)c5)C5CCNCC5)CC4)ccc2O3)CC1` (stereo not shown) [Compound 753], the minimal inhibitory concentration (MIC) is less than 16 µg/mL. The result for `NCCCNC1CCC(n2cc3c(nc2=O)Nc2cc(C4CCN(C(=O)CN(Cc5ccc(F)c(F)c5)C5CCNCC5)CC4)ccc2O3)CC1` (stereo not shown) [Compound 754] reads less than 16 µg/mL; that for `N=C(N)NCCCNC1CCC(n2cc3c(nc2=O)Nc2cc(C(=O)NCCc4c[nH]cn4)ccc2O3)CC1` (stereo not shown) [Compound 763], more than 16 µg/mL; that for `N=C(N)NCCCNC1CCC(n2cc3c(nc2=O)Nc2cc(C4CCN(C(=O)Nc5ccc(F)cc5)CC4)ccc2O3)CC1` (stereo not shown) [Compound 765], less than 16 µg/mL. The result for `CN1CCN(CCCNC(=O)c2ccc3c(c2)Nc2nc(=O)n(C4CCC(NCCCNC(=N)N)CC4)cc2O3)CC1` (stereo not shown) [Compound 774] reads less than 16 µg/mL. The result for `N=C(N)NCCCNC1CCC(n2cc3c(nc2=O)Nc2cc(C4CCN(C(=O)C5(N)CC5)CC4)ccc2O3)CC1` (stereo not shown) [Compound 776] reads less than 16 µg/mL; that for `N=C(N)NCCCN1CCCC(n2cc3c(nc2=O)Nc2cc(C4CCN(C(=O)C5(N)CCCC5)CC4)ccc2O3)CC1` (stereo not shown) [Compound 777], less than 16 µg/mL.

With `N=C(N)NCCCNC1CCC(n2cc3c(nc2=O)Nc2cc(C(=O)NCCCN4CCOCC4)ccc2O3)CC1` (stereo not shown) [Compound 781], the MIC is less than 16 µg/mL.

In the case of `N=C(N)NCCCN1CCC(n2cc3c(nc2=O)Nc2cc(C4CCN(C(=O)Nc5cc(F)c(F)cc5F)CC4)ccc2O3)CC1` [Compound 782], the MIC is more than 16 µg/mL.

For the compound `N=C(N)NCCCNC1CCC(n2cc3c(nc2=O)Nc2cc(C4CCN(C(=O)C5(N)CCCC5)CC4)ccc2O3)CC1` (stereo not shown) [Compound 783], the minimum inhibitory concentration (MIC) is less than 16 µg/mL. The result for `N=C(N)NCCCN1CCCC(n2cc3c(nc2=O)Nc2cc(C4CCN(C(=O)CN)CC4)ccc2O3)CC1` (stereo not shown) [Compound 793] reads less than 16 µg/mL; that for `NCCCN1CCCC(n2cc3c(nc2=O)Nc2cc(C4CCN(C(=O)CCN)CC4)ccc2O3)CC1` (stereo not shown) [Compound 795], more than 16 µg/mL; that for `NCCCN1CCC(n2cc3c(nc2=O)Nc2cc(C(=O)NCCN4CCC[C@H](N)C4)ccc2O3)CC1` [Compound 798], more than 16 µg/mL. `N=C(N)NCC(=O)N1CCC(c2ccc3c(c2)Nc2nc(=O)n(C4CCCN(CCCN)CC4)cc2O3)CC1` (stereo not shown) [Compound 832]: the minimal inhibitory concentration (MIC) was less than 16 µg/mL. The result for `N=C(N)NCCCN1CCCC(n2cc3c(nc2=O)Nc2cc(C4CCN(C(N)=O)CC4)ccc2O3)CC1` (stereo not shown) [Compound 833] reads less than 16 µg/mL; that for `O=C(NCCCN1CCNCC1)c1ccc2c(c1)Nc1nc(=O)n(CCO)cc1O2` [Compound 858], more than 16 µg/mL. The result for `NCCCN1CCCC(n2cc3c(nc2=O)Nc2cc(C(=O)N4CCC[C@H](N)C4)ccc2O3)CC1` (stereo partly shown) [Compound 870] reads more than 16 µg/mL; that for `NCCCN1CCCC(n2cc3c(nc2=O)Nc2cc(C(=O)N4CCC[C@@H](N)C4)ccc2O3)CC1` (stereo partly shown) [Compound 888], more than 16 µg/mL. The result for `O=C(NCCCN1CCNCC1)c1ccc2c(c1)Nc1nc(=O)n(C3CCCNCC3)cc1O2` (stereo not shown) [Compound 890] reads more than 16 µg/mL; that for `NC1CCCN(C(=O)c2ccc3c(c2)Nc2nc(=O)n(C4CCCNCC4)cc2O3)C1` (stereo not shown) [Compound 891], more than 16 µg/mL; that for `NC1CCC(n2cc3c(nc2=O)Nc2cc(CC(=O)NCCCN4CCNCC4)ccc2O3)CC1` (stereo not shown) [Compound 903], more than 16 µg/mL. Take `N[C@@H]1CCCN(C(=O)c2ccc3c(c2)Nc2nc(=O)n(C4CCCNCC4)cc2O3)C1` (stereo partly shown) [Compound 908]: the MIC was more than 16 µg/mL. The result for `CCn1cc2c(nc1=O)Nc1cc(CNCCCN3CCNCC3)ccc1O2` [Compound 919] reads more than 16 µg/mL; that for `O=c1nc2c(cn1C1CCCNCC1)Oc1ccc(CNCCCN3CCNCC3)cc1N2` (stereo not shown) [Compound 920], more than 16 µg/mL. The result for `N[C@H]1CCCN(CCNCc2ccc3c(c2)Nc2nc(=O)n(C4CCCNCC4)cc2O3)C1` (stereo partly shown) [Compound 921] reads more than 16 µg/mL; that for `NCCCN1CCC(n2cc3c(nc2=O)N[C@@H]2CCCC[C@H]2O3)CC1` [Compound 929], more than 16 µg/mL. The result for `N=C(N)NCCCNC1CCC(n2cc3c(nc2=O)Nc2cc(C4=CCNCC4)ccc2O3)CC1` (stereo not shown) [Compound 938] reads less than 16 µg/mL; that for `N=C(N)NCCCN1CCCC(n2cc3c(nc2=O)Nc2cc(C(=O)N4CCC[C@H](N)C4)ccc2O3)CC1` (stereo partly shown) [Compound 950], less than 16 µg/mL. For the compound `N=C(N)NCCCN[C@H]1CC[C@H](n2cc3c(nc2=O)Nc2cc(CCN4CCOCC4)ccc2O3)CC1` [Compound 956], the MIC is less than 16 µg/mL.

In the case of `NC1CCC(n2cc3c(nc2=O)Nc2cc(C4CCNCC4)ccc2O3)CC1` (stereo not shown) [Compound 972], the MIC is more than 16 µg/mL. The result for `N=C(N)NCCCNC1CCC(n2cc3c(nc2=O)Nc2cc(C4CCNCC4)ccc2O3)CC1` (stereo not shown) [Compound 993] reads less than 16 µg/mL; that for `N=C(N)NCCC(=O)NC1CCC(n2cc3c(nc2=O)Nc2cc(C4CCNCC4)ccc2O3)CC1` (stereo not shown) [Compound 1032], less than 16 µg/mL.
